Results taken from ChEMBL document CHEMBL4699440, “Comprehensive review on the anti-bacterial activity of 1,2,3-triazole hybrids” (Eur J Med Chem, 2019).
Converted amounts (≈) assume the structure as drawn.

Legend:
Type in all cases: functional
Pseudomonas aeruginosa = assay: Antibacterial activity against Pseudomonas aeruginosa ATCC 27853 incubated for 16 to 18 hrs by serial plate dilution method; details: time hrs 16-18
Klebsiella pneumoniae = assay: Antibacterial activity against Klebsiella pneumoniae incubated for 16 to 18 hrs by serial plate dilution method; details: time hrs 16-18
Talaromyces marneffei = assay: Antifungal activity against Penicillium marneffei incubated for 3 to 4 days by serial plate dilution method; details: time day 3-4
Aspergillus flavus = assay: Antifungal activity against Aspergillus flavus NCIM 524 incubated for 3 to 4 days by serial plate dilution method; details: time day 3-4
Escherichia coli = assay: Antibacterial activity against Escherichia coli ATCC 25922 incubated for 16 to 18 hrs by serial plate dilution method; details: time hrs 16-18
Staphylococcus aureus [1] = assay: Antibacterial activity against methicillin-resistant Staphylococcus aureus ATCC 25923 incubated for 16 to 18 hrs by serial plate dilution method; details: time hrs 16-18
[2] = test system: Trichophyton mentagrophytes; assay: Antifungal activity against Trichophyton mentagrophytes incubated for 3 to 4 days by serial plate dilution method; details: time day 3-4
Aspergillus fumigatus = assay: Antifungal activity against Aspergillus fumigatus NCIM 902 incubated for 3 to 4 days by serial plate dilution method; details: time day 3-4
Staphylococcus aureus [3] = assay: Antibacterial activity against Staphylococcus aureus MTCC 96 incubated for 24 hrs by macrodilution tube method
Bacillus cereus = assay: Antibacterial activity against Bacillus cereus MTCC 430 incubated for 24 hrs by macrodilution tube method

Structure (SMILES)	MIC (Pseudomonas aeruginosa) [µg/mL]	MIC (Klebsiella pneumoniae) [µg/mL]	MIC (Talaromyces marneffei) [µg/mL]	MIC (Aspergillus flavus) [µg/mL]	MIC (Escherichia coli) [µg/mL]	MIC (Staphylococcus aureus [1]) [µg/mL]	MIC [2] [µg/mL]	MIC (Aspergillus fumigatus) [µg/mL]	MIC (Staphylococcus aureus [3]) [µg/mL]	MIC (Bacillus cereus) [µg/mL]
COc1ccc(/C=N/NC(=O)c2nnn(-c3cc(C(F)(F)F)nc4c(C(F)(F)F)cccc34)c2C)c([N+](=O)[O-])c1OC	6.25 (≈ 10.5 µM)	6.25 (≈ 10.5 µM)	6.25 (≈ 10.5 µM)	6.25 (≈ 10.5 µM)	6.25 (≈ 10.5 µM)	6.25 (≈ 10.5 µM)	6.25 (≈ 10.5 µM)	6.25 (≈ 10.5 µM)	–	–
Cc1c(C(=O)N/N=C/c2ccc([N+](=O)[O-])cc2)nnn1-c1cc(C(F)(F)F)nc2c(C(F)(F)F)cccc12	6.25 (≈ 11.6 µM)	6.25 (≈ 11.6 µM)	6.25 (≈ 11.6 µM)	6.25 (≈ 11.6 µM)	6.25 (≈ 11.6 µM)	6.25 (≈ 11.6 µM)	6.25 (≈ 11.6 µM)	6.25 (≈ 11.6 µM)	–	–
COc1ccc(/C=N/NC(=O)c2nnn(-c3cc(C(F)(F)F)nc4c(C(F)(F)F)cccc34)c2C)cc1OC	6.25 (≈ 11.3 µM)	6.25 (≈ 11.3 µM)	6.25 (≈ 11.3 µM)	6.25 (≈ 11.3 µM)	6.25 (≈ 11.3 µM)	6.25 (≈ 11.3 µM)	6.25 (≈ 11.3 µM)	6.25 (≈ 11.3 µM)	–	–
Cc1c(C(=O)N/N=C/c2cccnc2)nnn1-c1cc(C(F)(F)F)nc2c(C(F)(F)F)cccc12	6.25 (≈ 12.7 µM)	6.25 (≈ 12.7 µM)	6.25 (≈ 12.7 µM)	6.25 (≈ 12.7 µM)	6.25 (≈ 12.7 µM)	6.25 (≈ 12.7 µM)	6.25 (≈ 12.7 µM)	6.25 (≈ 12.7 µM)	–	–
COc1ccc(/C=N/NC(=O)c2nnn(-c3cc(C(F)(F)F)nc4c(C(F)(F)F)cccc34)c2C)cc1	6.25 (≈ 12 µM)	6.25 (≈ 12 µM)	6.25 (≈ 12 µM)	6.25 (≈ 12 µM)	6.25 (≈ 12 µM)	6.25 (≈ 12 µM)	6.25 (≈ 12 µM)	6.25 (≈ 12 µM)	–	–
COc1ccc2cc(/C=N/NC(=O)c3nnn(-c4cc(C(F)(F)F)nc5c(C(F)(F)F)cccc45)c3C)ccc2c1	6.25 (≈ 10.9 µM)	6.25 (≈ 10.9 µM)	6.25 (≈ 10.9 µM)	6.25 (≈ 10.9 µM)	6.25 (≈ 10.9 µM)	6.25 (≈ 10.9 µM)	6.25 (≈ 10.9 µM)	6.25 (≈ 10.9 µM)	–	–
O=C1CCCC2=C1C(c1cccc3ccccc13)c1cc3cc(OCc4cn(-c5ccnc6cc(Cl)ccc56)nn4)ccc3cc1O2 (centres undefined)	–	–	–	–	–	–	–	–	16 (≈ 25.2 µM)	16 (≈ 25.2 µM)
CC1(C)CC(=O)C2=C(C1)Oc1cc3ccc(OCc4cn(-c5ccnc6cc(Cl)ccc56)nn4)cc3cc1C2c1ccc(Cl)cc1 (centres undefined)	–	–	–	–	–	–	–	–	16 (≈ 24.7 µM)	16 (≈ 24.7 µM)
CC1(C)CC(=O)C2=C(C1)Oc1cc3ccc(OCc4cn(-c5ccnc6cc(Cl)ccc56)nn4)cc3cc1C2c1ccccc1 (centres undefined)	–	–	–	–	–	–	–	–	16 (≈ 26.1 µM)	16 (≈ 26.1 µM)
CC1(C)CC(=O)C2=C(C1)Oc1cc3ccc(OCc4cn(-c5ccnc6cc(Cl)ccc56)nn4)cc3cc1C2c1ccc([N+](=O)[O-])cc1 (centres undefined)	–	–	–	–	–	–	–	–	16 (≈ 24.3 µM)	16 (≈ 24.3 µM)
CC(C)c1ccc(C2C3=C(CCCC3=O)Oc3cc4ccc(OCc5cn(-c6ccnc7cc(Cl)ccc67)nn5)cc4cc32)cc1 (centres undefined)	–	–	–	–	–	–	–	–	16 (≈ 25.5 µM)	16 (≈ 25.5 µM)
COc1ccc(/C=N/NC(=O)c2nnn(-c3cc(C(F)(F)F)nc4c(C(F)(F)F)cccc34)c2C)c(OC)c1OC	6.25 (≈ 10.7 µM)	6.25 (≈ 10.7 µM)	6.25 (≈ 10.7 µM)	6.25 (≈ 10.7 µM)	6.25 (≈ 10.7 µM)	6.25 (≈ 10.7 µM)	6.25 (≈ 10.7 µM)	6.25 (≈ 10.7 µM)	–	–
CC1(C)CC(=O)C2=C(C1)Oc1cc3ccc(OCc4cn(-c5ccnc6cc(Cl)ccc56)nn4)cc3cc1C2c1ccc(F)cc1 (centres undefined)	–	–	–	–	–	–	–	–	16 (≈ 25.4 µM)	16 (≈ 25.4 µM)
Cc1c(C(=O)N/N=C/c2ccccc2)nnn1-c1cc(C(F)(F)F)nc2c(C(F)(F)F)cccc12	6.25 (≈ 12.7 µM)	6.25 (≈ 12.7 µM)	6.25 (≈ 12.7 µM)	6.25 (≈ 12.7 µM)	6.25 (≈ 12.7 µM)	6.25 (≈ 12.7 µM)	6.25 (≈ 12.7 µM)	6.25 (≈ 12.7 µM)	–	–
Cc1c(C(=O)N/N=C/c2ccccc2O)nnn1-c1cc(C(F)(F)F)nc2c(C(F)(F)F)cccc12	6.25 (≈ 12.3 µM)	6.25 (≈ 12.3 µM)	6.25 (≈ 12.3 µM)	6.25 (≈ 12.3 µM)	6.25 (≈ 12.3 µM)	6.25 (≈ 12.3 µM)	6.25 (≈ 12.3 µM)	6.25 (≈ 12.3 µM)	–	–
